Test results: PubChem BioAssay AID1919004 (Molecular Pharmacology Branch, DTP, NCI, 2023)
Values joined by “and” are separate entries in the source; they are usually repeats but may differ in a detail not shown here. Identical values can stand only once. Each block holds one compound with its values, some of them ahead of it.

Test system: 883617-216-R-J1-PDC complex spheroids, growth, % test/control
Assay: Anticancer human tumor 883617-216-R-J1-PDC patient-derived bladder carcinoma cell line growth inhibition [AhR]
Conditions: for viability, T/C: stronger effect = lower value
Method in brief: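 Complex tumor spheroids co-cultured with HUVEC and human MSC stroma; AhR antagonists tested in combination with standard-of-care and investigational agents. Top concentration at or near clinical Cmax (else 10 microM), half-log dilutions; growth expressed as percent test/control.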

[1] = curve of first compound, second compound 0.1 µM
[2] = curve of first compound, second compound 0.316 µM
[3] = curve of first compound, second compound 1 µM
[4] = curve of first compound, second compound 3.16 µM
[5] = curve of first compound, second compound 10 µM
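Also: exposure lasted 7 days after dosing on day 3 of spheroid growth.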

Compound: Cc1cncc(-c2nc(NCCc3c[nH]c4ccccc34)c3ncn(C(C)C)c3n2)c1
viability, T/C (compound 0.1 µM): 88.2% [middle of 19 runs]
viability, T/C (compound 1 µM): 95.8% [middle of 20 runs]
viability, T/C (compound 10 µM): 51.4% [middle of 21 runs]

IC50 (curve of compound): 234 nM and 137 nM and > 300 nM
Compound: CCc1c2c(nc3ccc(O)cc13)-c1cc3c(c(=O)n1C2)COC(=O)[C@]3(O)CC
viability, T/C (compound 0.000949 µM): 88.9% and 98.2% and 69%
viability, T/C (compound 0.003 µM): 82.4% and 85.1% and 111%
viability, T/C (compound 0.00949 µM): 72.4% and 70.3% and 75.6%
viability, T/C (compound 0.03 µM): 79.9% and 64.4% and 83.5%
viability, T/C (compound 0.0949 µM): 68.2% and 57.1% and 75.1%
viability, T/C (compound 0.3 µM): 44.6% and 41% and 84.5%

IC50 [1]: 284 nM
IC50 [2]: 255 nM
IC50 [3]: 339 nM
IC50 [4]: 258 nM
IC50 [5]: 380 nM
Compound: COc1cccc2c1C(=O)c1c(O)c3c(c(O)c1C2=O)CC(O)(C(=O)CO)CC3OC1CC(N)C(O)C(C)O1 (stereo not given) + Cc1ccccc1N=Nc1ccc(NC(=O)c2ccnn2C)c(C)c1
viability, T/C (second compound 0.1 µM, first compound 0.0316 µM): 66.5%
viability, T/C (second compound 0.1 µM, first compound 0.1 µM): 60.6%
viability, T/C (second compound 0.1 µM, first compound 0.316 µM): 48.4%
viability, T/C (second compound 0.1 µM, first compound 1 µM): 22.7%
viability, T/C (second compound 0.1 µM, first compound 3.16 µM): 0.11%
viability, T/C (second compound 0.1 µM, first compound 10 µM): 0.14%
viability, T/C (second compound 0.316 µM, first compound 0.0316 µM): 67.5%
viability, T/C (second compound 0.316 µM, first compound 0.1 µM): 61.3%
viability, T/C (second compound 0.316 µM, first compound 0.316 µM): 47.5%
viability, T/C (second compound 0.316 µM, first compound 1 µM): 16.7%
viability, T/C (second compound 0.316 µM, first compound 3.16 µM): 0.12%
viability, T/C (second compound 0.316 µM, first compound 10 µM): 0.15%
viability, T/C (second compound 1 µM, first compound 0.0316 µM): 56.8%
viability, T/C (second compound 1 µM, first compound 0.1 µM): 63.4%
viability, T/C (second compound 1 µM, first compound 0.316 µM): 51.5%
viability, T/C (second compound 1 µM, first compound 1 µM): 16.5%
viability, T/C (second compound 1 µM, first compound 3.16 µM): 0.12%
viability, T/C (second compound 1 µM, first compound 10 µM): 0.65%
viability, T/C (second compound 3.16 µM, first compound 0.0316 µM): 66.5%
viability, T/C (second compound 3.16 µM, first compound 0.1 µM): 56%
viability, T/C (second compound 3.16 µM, first compound 0.316 µM): 48.7%
viability, T/C (second compound 3.16 µM, first compound 1 µM): 11.9%
viability, T/C (second compound 3.16 µM, first compound 3.16 µM): 0.12%
viability, T/C (second compound 3.16 µM, first compound 10 µM): 0.5%
viability, T/C (second compound 10 µM, first compound 0.0316 µM): 58.6%
viability, T/C (second compound 10 µM, first compound 0.1 µM): 57.3%
viability, T/C (second compound 10 µM, first compound 0.316 µM): 57.8%
viability, T/C (second compound 10 µM, first compound 1 µM): 8.97%
viability, T/C (second compound 10 µM, first compound 3.16 µM): 0.18%
viability, T/C (second compound 10 µM, first compound 10 µM): 0.21%

IC50 [1]: > 300 nM
IC50 [2]: > 300 nM
IC50 [3]: > 300 nM
IC50 [4]: > 300 nM
IC50 [5]: > 300 nM
Compound: Nc1ncn(C2CC(O)C(CO)S2)c(=O)n1 (stereo not given) + Cc1cncc(-c2nc(NCCc3c[nH]c4ccccc34)c3ncn(C(C)C)c3n2)c1
viability, T/C (second compound 0.1 µM, first compound 0.000949 µM): 93.3%
viability, T/C (second compound 0.1 µM, first compound 0.003 µM): 88.9%
viability, T/C (second compound 0.1 µM, first compound 0.00949 µM): 94.6%
viability, T/C (second compound 0.1 µM, first compound 0.03 µM): 89.9%
viability, T/C (second compound 0.1 µM, first compound 0.0949 µM): 87.3%
viability, T/C (second compound 0.1 µM, first compound 0.3 µM): 81.9%
viability, T/C (second compound 0.316 µM, first compound 0.000949 µM): 95%
viability, T/C (second compound 0.316 µM, first compound 0.003 µM): 104%
viability, T/C (second compound 0.316 µM, first compound 0.00949 µM): 103%
viability, T/C (second compound 0.316 µM, first compound 0.03 µM): 90.7%
viability, T/C (second compound 0.316 µM, first compound 0.0949 µM): 91.7%
viability, T/C (second compound 0.316 µM, first compound 0.3 µM): 81.6%
viability, T/C (second compound 1 µM, first compound 0.000949 µM): 105%
viability, T/C (second compound 1 µM, first compound 0.003 µM): 119%
viability, T/C (second compound 1 µM, first compound 0.00949 µM): 106%
viability, T/C (second compound 1 µM, first compound 0.03 µM): 107%
viability, T/C (second compound 1 µM, first compound 0.0949 µM): 92.4%
viability, T/C (second compound 1 µM, first compound 0.3 µM): 94.8%
viability, T/C (second compound 3.16 µM, first compound 0.000949 µM): 82.8%
viability, T/C (second compound 3.16 µM, first compound 0.003 µM): 82.6%
viability, T/C (second compound 3.16 µM, first compound 0.00949 µM): 82.4%
viability, T/C (second compound 3.16 µM, first compound 0.03 µM): 88.2%
viability, T/C (second compound 3.16 µM, first compound 0.0949 µM): 76.7%
viability, T/C (second compound 3.16 µM, first compound 0.3 µM): 83.1%
viability, T/C (second compound 10 µM, first compound 0.000949 µM): 54.5%
viability, T/C (second compound 10 µM, first compound 0.003 µM): 62.4%
viability, T/C (second compound 10 µM, first compound 0.00949 µM): 59%
viability, T/C (second compound 10 µM, first compound 0.03 µM): 57.3%
viability, T/C (second compound 10 µM, first compound 0.0949 µM): 46.4%
viability, T/C (second compound 10 µM, first compound 0.3 µM): 61.5%
